Test results from ChEMBL document CHEMBL1201862, “PubChem BioAssay data set” (2004).
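Growth conditions: 96-well plates. Treatment: test compound, 48 hours, 5 concentrations. Analysis: linear interpolation between bracketing concentrations; unreached endpoints set to highest concentration. At the GI50, growth is halved.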 The source made the active and inactive calls. No stated cut-off is given here; in the data, active = GI50 up to about 1.1 µM and inactive = higher.

Assays:
Test in all cases: inhibition of tumour cell growth, NCI panel, 48 h
A549 = system: A549
EKVX = system: EKVX
IGROV-1 = system: IGROV-1
K562 = system: K562
LOX IMVI = system: LOX IMVI
Malme-3M = system: Malme-3M
NCI-H226 = system: NCI-H226
NCI-H460 = system: NCI-H460
NCI-H522 = system: NCI-H522
NCI/ADR-RES = system: NCI/ADR-RES
OVCAR-3 = system: OVCAR-3
OVCAR-4 = system: OVCAR-4
OVCAR-8 = system: OVCAR-8
RXF 393 = system: RXF 393
SK-MEL-28 = system: SK-MEL-28
SK-MEL-5 = system: SK-MEL-5
SW-620 = system: SW-620
UO-31 = system: UO-31

## Cn1c(=O)[nH]c2nncnc2c1=O
A549
  GI50: 80 µM (inactive)
EKVX
  GI50: 40.5 µM (inactive)
IGROV-1
  GI50: 29.2 µM (inactive)
K562
  GI50: 211 µM (inactive)
LOX IMVI
  GI50: 361 µM (inactive)
Malme-3M
  GI50: 44.7 µM (inactive)
NCI-H226
  GI50: 5.83 µM (inactive)
NCI-H460
  GI50: 29.3 µM (inactive)
NCI-H522
  GI50: 157 µM (inactive)
NCI/ADR-RES
  GI50: 217 µM (inactive)
OVCAR-3
  GI50: 78.9 µM (inactive)
OVCAR-4
  GI50: 85.5 µM (inactive)
OVCAR-8
  GI50: 19.8 µM (inactive)
RXF 393
  GI50: 19.3 µM (inactive)
SK-MEL-28
  GI50: 474 µM (inactive)
SK-MEL-5
  GI50: 92.5 µM (inactive)
SW-620
  GI50: 75 µM (inactive)
UO-31
  GI50: 46 µM (inactive)

## O=C(Nc1ccc(Cl)cc1Cl)OC(Cn1cncn1)c1ccc(Cl)cc1Cl (centres undefined)
A549
  GI50: 15.5 µM (inactive)
EKVX
  GI50: 16 µM (inactive)
IGROV-1
  GI50: 16.9 µM (inactive)
K562
  GI50: 15.3 µM (inactive)
LOX IMVI
  GI50: 16.3 µM (inactive)
Malme-3M
  GI50: 15 µM (inactive)
NCI-H226
  GI50: 19.7 µM (inactive)
NCI-H522
  GI50: 16.3 µM (inactive)
OVCAR-3
  GI50: 15.8 µM (inactive)
OVCAR-4
  GI50: 14.4 µM (inactive)
OVCAR-8
  GI50: 17.3 µM (inactive)
RXF 393
  GI50: 16.9 µM (inactive)
SK-MEL-28
  GI50: 16.3 µM (inactive)
SK-MEL-5
  GI50: 16.7 µM (inactive)
SW-620
  GI50: 16.7 µM (inactive)
UO-31
  GI50: 13.2 µM (inactive)

## CSc1nc(CO)c(CO)n1C
A549
  GI50: > 100 µM (inactive)
EKVX
  GI50: > 100 µM (inactive)
IGROV-1
  GI50: > 100 µM (inactive)
K562
  GI50: > 100 µM (inactive)
LOX IMVI
  GI50: > 100 µM (inactive)
NCI-H226
  GI50: > 100 µM (inactive)
NCI-H460
  GI50: > 100 µM (inactive)
NCI-H522
  GI50: > 100 µM (inactive)
NCI/ADR-RES
  GI50: > 100 µM (inactive)
OVCAR-3
  GI50: > 100 µM (inactive)
OVCAR-4
  GI50: > 100 µM (inactive)
OVCAR-8
  GI50: > 100 µM (inactive)
RXF 393
  GI50: > 100 µM (inactive)
SK-MEL-28
  GI50: > 100 µM (inactive)
SK-MEL-5
  GI50: > 100 µM (inactive)
SW-620
  GI50: > 100 µM (inactive)
UO-31
  GI50: > 100 µM (inactive)

## CCP(C)(C)=O
A549
  GI50: > 100 µM (inactive)
EKVX
  GI50: > 100 µM (inactive)
IGROV-1
  GI50: > 100 µM (inactive)
K562
  GI50: > 100 µM (inactive)
LOX IMVI
  GI50: > 100 µM (inactive)
Malme-3M
  GI50: > 100 µM (inactive)
NCI-H460
  GI50: > 100 µM (inactive)
OVCAR-3
  GI50: > 100 µM (inactive)
OVCAR-4
  GI50: > 100 µM (inactive)
OVCAR-8
  GI50: > 100 µM (inactive)
RXF 393
  GI50: > 100 µM (inactive)
SK-MEL-28
  GI50: > 100 µM (inactive)
SK-MEL-5
  GI50: > 100 µM (inactive)
SW-620
  GI50: > 100 µM (inactive)
UO-31
  GI50: > 10 µM (inactive)

## N#CCc1ccc(/C(C#N)=C2/OC(=N)C(c3ccc(CC#N)cc3)C2=O)cc1 (centres undefined)
A549
  GI50: > 100 µM (inactive)
EKVX
  GI50: > 100 µM (inactive)
IGROV-1
  GI50: > 100 µM (inactive)
K562
  GI50: > 100 µM (inactive)
LOX IMVI
  GI50: > 100 µM (inactive)
Malme-3M
  GI50: > 100 µM (inactive)
NCI-H226
  GI50: > 100 µM (inactive)
NCI-H460
  GI50: > 100 µM (inactive)
NCI-H522
  GI50: > 100 µM (inactive)
OVCAR-3
  GI50: > 100 µM (inactive)
OVCAR-4
  GI50: > 100 µM (inactive)
OVCAR-8
  GI50: > 100 µM (inactive)
RXF 393
  GI50: > 100 µM (inactive)
SK-MEL-28
  GI50: > 100 µM (inactive)
SK-MEL-5
  GI50: > 100 µM (inactive)
SW-620
  GI50: > 100 µM (inactive)
UO-31
  GI50: > 100 µM (inactive)

## COC(=O)Cc1cc(OC)c(OC)cc1Br
A549
  GI50: > 100 µM (inactive)
EKVX
  GI50: > 100 µM (inactive)
K562
  GI50: > 100 µM (inactive)
Malme-3M
  GI50: > 100 µM (inactive)
NCI-H226
  GI50: > 100 µM (inactive)
NCI-H460
  GI50: > 100 µM (inactive)
NCI-H522
  GI50: > 100 µM (inactive)
OVCAR-3
  GI50: > 100 µM (inactive)
OVCAR-4
  GI50: > 100 µM (inactive)
OVCAR-8
  GI50: > 100 µM (inactive)
SK-MEL-28
  GI50: > 100 µM (inactive)
SW-620
  GI50: > 100 µM (inactive)
UO-31
  GI50: > 100 µM (inactive)

## O=c1[c-](-c2ccccc2)[se]c(-c2ccccc2)[n+]1-c1ccccc1
A549
  GI50: 16.3 µM (inactive)
EKVX
  GI50: 13.5 µM (inactive)
IGROV-1
  GI50: 3.71 µM (inactive)
K562
  GI50: 16.8 µM (inactive)
LOX IMVI
  GI50: 13.3 µM (inactive)
Malme-3M
  GI50: 15.5 µM (inactive)
NCI-H226
  GI50: 3.13 µM (inactive)
NCI-H460
  GI50: 15.9 µM (inactive)
NCI-H522
  GI50: 2.91 µM (inactive)
OVCAR-3
  GI50: 10 µM (inactive)
OVCAR-4
  GI50: 2.35 µM (inactive)
OVCAR-8
  GI50: 3.8 µM (inactive)
RXF 393
  GI50: 3.18 µM (inactive)
SK-MEL-28
  GI50: 9.31 µM (inactive)
SK-MEL-5
  GI50: 13 µM (inactive)
SW-620
  GI50: 12.5 µM (inactive)
UO-31
  GI50: 3.08 µM (inactive)

## Cc1cc2c(cc1C)[n+]([O-])c(C(=O)C/C(=N/NC(=O)CC#N)C(=O)Nc1ccccc1C(F)(F)F)c(C)[n+]2[O-]
A549
  GI50: 35 µM (inactive)
EKVX
  GI50: 53.1 µM (inactive)
IGROV-1
  GI50: > 100 µM (inactive)
K562
  GI50: 35.6 µM (inactive)
LOX IMVI
  GI50: 53.8 µM (inactive)
Malme-3M
  GI50: 3.56 µM (inactive)
NCI-H226
  GI50: 26.9 µM (inactive)
NCI-H460
  GI50: 34.4 µM (inactive)
NCI-H522
  GI50: 18.8 µM (inactive)
OVCAR-3
  GI50: 37 µM (inactive)
OVCAR-4
  GI50: 44 µM (inactive)
OVCAR-8
  GI50: 50.8 µM (inactive)
RXF 393
  GI50: 77.1 µM (inactive)
SK-MEL-28
  GI50: 70.8 µM (inactive)
SW-620
  GI50: 50.6 µM (inactive)

## COc1cc(OC)cc(-c2cc(O)c3cc4c(cc3n2)OCO4)c1
A549
  GI50: 0.428 µM (active)
EKVX
  GI50: 12.6 µM (inactive)
IGROV-1
  GI50: 0.389 µM (active)
K562
  GI50: 0.15 µM (active)
LOX IMVI
  GI50: 0.367 µM (active)
Malme-3M
  GI50: 0.426 µM (active)
NCI-H226
  GI50: 0.251 µM (active)
NCI-H460
  GI50: 0.26 µM (active)
NCI-H522
  GI50: 0.139 µM (active)
OVCAR-3
  GI50: 0.136 µM (active)
OVCAR-4
  GI50: 17.1 µM (inactive)
OVCAR-8
  GI50: 0.395 µM (active)
SK-MEL-28
  GI50: 0.194 µM (active)
SK-MEL-5
  GI50: 0.163 µM (active)
SW-620
  GI50: 0.203 µM (active)
UO-31
  GI50: 1.22 µM (inactive)
